Among the data in US20070203066A1, “Compositions and methods for inhibiting cellular proliferation” (priority 2005, published 2007) are IC50 values, retold here.

Non-standard residues stand in square brackets, D forms with d. Primed or numbered codes have the meaning given here. No end group written: not given here. Ida = iminodiacetic acid linker, its two carboxyls bind the Lys side-chain amines of two peptides, giving a homodimer; Ida(3) = iminodiacetic acid linker, Lys side-chain amines bound to its two carboxyl groups; Ida(4) = iminodiacetic acid linker (dimerization linker bound to lysine side chain); Ida″ = iminodiacetic acid linker bound to the Lys side-chain amine, forming a dimer; acyl = not defined here; ATA = not defined here

The test system of one test is HUVECs. Type of test: cell-based. The note with it: 48 h. The essentials: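 Proliferation read-out: BrdU incorporation after 48-hour culture (37 ° C, 5% CO2) with graded peptide doses. Cells were in EBM with 2% FCS at 5,000 per well, driven by VEGF (5 ng/ml) or bFGF (10 ng/ml), added after ≥12-hour attachment.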
As a reminder, the IC50 is the concentration at which inhibition is half-maximal. `CC[C@H](C)[C@H](NC(=O)[C@H](CCCNC(=N)N)NC(=O)[C@@H](NC(=O)[C@H](CCCNC(=N)N)NC(=O)[C@H](CCC(N)=O)NC(=O)[C@H](CCCNC(=N)N)NC(=O)[C@H](CCCNC(=N)N)NC(=O)[C@H](CCCNC(=N)N)NC(=O)[C@H](CCCNC(=N)N)NC(=O)[C@H](CCCNC(=N)N)NC(C)=O)C(C)C)C(=O)N[C@H](C(=O)N[C@@H](Cc1ccccc1)C(=O)N[C@@H](CCCCNC(=O)CN(CC(=O)NCCCC[C@H](NC(=O)[C@H](Cc1ccccc1)NC(=O)[C@@H](NC(=O)[C@@H](NC(=O)[C@H](CCCNC(=N)N)NC(=O)[C@@H](NC(=O)[C@H](CCCNC(=N)N)NC(=O)[C@H](CCC(N)=O)NC(=O)[C@H](CCCNC(=N)N)NC(=O)[C@H](CCCNC(=N)N)NC(=O)[C@H](CCCNC(=N)N)NC(=O)[C@H](CCCNC(=N)N)NC(=O)[C@H](CCCNC(=N)N)NC(C)=O)C(C)C)[C@@H](C)CC)[C@@H](C)CC)C(N)=O)C(=O)CCNC(=O)OC(C)(C)C)C(N)=O)[C@@H](C)CC` [Peptide 167] displayed an IC50 below 10 µM.
Compound `CC[C@H](C)[C@H](NC(=O)[C@H](C)NC(=O)[C@@H](NC(=O)[C@H](C)NC(=O)[C@H](CCC(N)=O)NC(=O)[C@H](CCCNC(=N)N)NC(=O)[C@H](CCCNC(=N)N)NC(=O)[C@H](CCCNC(=N)N)NC(=O)[C@H](CCCNC(=N)N)NC(=O)[C@H](CCCNC(=N)N)NC(C)=O)C(C)C)C(=O)N[C@@H](Cc1ccc(O)cc1)C(=O)N[C@@H](Cc1ccccc1)C(=O)N[C@@H](CCCCNC(=O)CN(CC(=O)NCCCC[C@H](NC(=O)[C@H](Cc1ccccc1)NC(=O)[C@H](Cc1ccc(O)cc1)NC(=O)[C@@H](NC(=O)[C@H](C)NC(=O)[C@@H](NC(=O)[C@H](C)NC(=O)[C@H](CCC(N)=O)NC(=O)[C@H](CCCNC(=N)N)NC(=O)[C@H](CCCNC(=N)N)NC(=O)[C@H](CCCNC(=N)N)NC(=O)[C@H](CCCNC(=N)N)NC(=O)[C@H](CCCNC(=N)N)NC(C)=O)C(C)C)[C@@H](C)CC)C(N)=O)C(=O)CCNC(=O)OC(C)(C)C)C(N)=O` [Peptide 267] displayed an IC50 below 10 µM.
The same measure, in the same setting: the same measure for `CC[C@H](C)[C@H](NC(=O)[C@H](C)NC(=O)[C@@H](NC(=O)[C@H](CCCNC(=N)N)NC(=O)[C@H](CCC(N)=O)NC(=O)[C@H](CCCNC(=N)N)NC(=O)[C@H](CCCNC(=N)N)NC(=O)[C@H](CCCNC(=N)N)NC(=O)[C@H](CCCNC(=N)N)NC(=O)[C@H](C)NC(C)=O)C(C)C)C(=O)N[C@@H](Cc1ccc(O)cc1)C(=O)N[C@@H](Cc1ccccc1)C(=O)N[C@@H](CCCCNC(=O)CN(CC(=O)NCCCC[C@H](NC(=O)[C@H](Cc1ccccc1)NC(=O)[C@H](Cc1ccc(O)cc1)NC(=O)[C@@H](NC(=O)[C@H](C)NC(=O)[C@@H](NC(=O)[C@H](CCCNC(=N)N)NC(=O)[C@H](CCC(N)=O)NC(=O)[C@H](CCCNC(=N)N)NC(=O)[C@H](CCCNC(=N)N)NC(=O)[C@H](CCCNC(=N)N)NC(=O)[C@H](CCCNC(=N)N)NC(=O)[C@H](C)NC(C)=O)C(C)C)[C@@H](C)CC)C(N)=O)C(=O)CCNC(=O)OC(C)(C)C)C(N)=O` [Peptide 228]: below 10 µM.

Staying with this test, now noted: HUVEC proliferation, bFGF at 10 ng/ml or VEGF at 5 ng/ml, 48 hours, BrdU incorporation; read-out: IC50 on HUVECs.
With “499 (Ac-PRYRRQAVAIYFK(Ida″); not fully specified (C-terminus); also: homodimer via Ida linker on Lys13 side chain) [compound 499]”, the IC50 was below 10 µM.
Consider “450 (Ac-ARRRRQAVAILFK-NH2; not fully specified (residue 13); also: homodimer via Ida linker at K13) [compound 450]”, for which the concentration for half-maximal inhibition (IC50) is below 10 µM.
On the same count and under the same terms, the same measure for KTKRKAAKQRVKIAYEEIFVQNM [compound 54]: above 30 µM; for “358 (Ac-RRRRRQAVRIDIDFK; not fully specified) [compound 358]”: above 30 µM.
Turning to “457 (Ac-PRRRRQAVAIYFK(ATA); reading uncertain; also: homotrimer via Ata linker on Lys13 side chain) [compound 457]”, the IC50 was above 30 µM.
Regarding “434 (Ac-RRRRFQAVAIYFK(Ida(4)); not fully specified (C-terminus); also: homodimer via Ida linker at K13) [compound 434]”, the IC50 is below 10 µM.
Turning to “217 (Ac-AHHHHQHVAIIF; also: dimer: Phe C-termini joined via Lys linker) [compound 217]”, the IC50 is above 30 µM.
Regarding KTKRKRKKQRVKIAYEEIFVQAA [compound 45], the IC50 is 10 to 30 µM.
On to “270 (Ac-RRRRRQAVAINFK-NH2; not fully specified (residue 13); also: homodimer: Lys13 side chain bound to Ida linker) [compound 270]”, for which the half-maximal inhibitory concentration (IC50) was below 10 µM.
Consider “505 (Ac-PRRYRQAVAIYFK; not fully specified (residue 13, C-terminus); also: homodimer via Ida linker on Lys13 side chain) [compound 505]”, for which the IC50 is below 10 µM.
For the compound “414 (Ac-YRRRRQAVAIYFK; not fully specified (residue 13, C-terminus); also: homodimer via Ida linker on Lys side chains, linker at 13 via Ida, other end not in the chain) [compound 414]”, the half-maximal inhibitory concentration (IC50) was below 10 µM.
Regarding KTKRKRKKARVKIIFVQNM [compound 115], the concentration for half-maximal inhibition (IC50) was below 10 µM.
KTKAKRKKQRVKIIFVQNM [compound 120]: the concentration for half-maximal inhibition (IC50) was below 10 µM.
Turning to KRKKQRVKIIFV [compound 88], the IC50 is above 30 µM.
On to “237 (Ac-RHRRHQRVRIIF; also: dimer via C-terminal Phe to Lys linker) [compound 237]”, for which the IC50 was below 10 µM.
Take “250 (Ac-RRRRRQAVAIHFK; not fully specified (C-terminus); also: homodimer: side chain of Lys13 bound to an Ida linker) [compound 250]”: the IC50 was below 10 µM.
As for “241 (Ac-RRHRHQRVRIIF; also: dimer via C-terminal Phe to Lys linker) [compound 241]”, the IC50 was below 10 µM.
Same read-out and setting: as for “174 (Ac-RARRRQRVRIIF; also: homodimer via C-terminal Lys linker) [compound 174]”, the figure is below 10 µM; as for “330 (XRRHRQHVRIYFK; not fully specified; Xaa = Acylated Histidine; The side chain of Lysine at position 13 is covalently bound to an Ida linker forming a homodimer of residues 1 through 13.) [compound 330]”, below 10 µM; as for “220 (Ac-RRRARQAVAIIF; also: dimer: Phe C-termini joined via Lys linker) [compound 220]”, below 10 µM.
For “365 (Ac-ARRRRQRVATYFK-NH2; not fully specified (residue 13); also: homodimer of residues 1-13 via Ida linker on K13 side chain) [compound 365]”, the half-maximal inhibitory concentration (IC50) is above 30 µM.
For the compound TKRKRKKQRVKIAYEEIFVKNM [compound 2], the IC50 lay in the range of 10 to 30 µM.
With “256 (Ac-ARRRRQRV[dA]IIFK; not fully specified (C-terminus); also: homodimer: side chain of Lys13 bound to an Ida linker) [compound 256]”, the IC50 is below 10 µM.
For the compound RKKQQRVKIAYEEIFV [compound 78], the IC50 is above 30 µM.
Take KAKRKRKKQRVKIIFVQNM [compound 122]: the IC50 is below 10 µM.
Same read-out and setting: as for “172 (acyl-KRRRRRQRVRIIF; not fully specified (residue 1); reading uncertain; also: homodimer via Ida-PEG 20 kDa linker on Lys1 side chains, acyl group not given here) [compound 172]”, the figure is below 10 µM; as for “304 (Ac-RRRRRQAVRIDIDFK(Ida)-NH2; also: homodimer via Ida linker on Lys15 side chain) [compound 304]”, below 10 µM; as for “320 (XRRRRQAVHIYFK; Xaa = Acylated Histidine; The side chain of Lysine at position 13 is covalently bound to an Ida linker forming a homodimer of residues 1 through 13.) [compound 320]”, below 10 µM.
Turning to KTKRKRKKQRVKIAYEE [compound 18], the half-maximal inhibitory concentration (IC50) lay within 10 to 30 µM.
For the compound KTKRKRKKQRVKIIFVQNA [compound 105], the half-inhibitory concentration (IC50) is below 10 µM.
“369 (Ac-ARRRRQRVAQYFK-NH2; not fully specified (residue 13); also: homodimer via Ida linker on Lys13 side chain, Boc on Ida amine) [compound 369]”: the IC50 was above 30 µM.
“261 (Ac-ARR[dR]RQRVAIIFK-NH2; not fully specified (residue 13); also: homodimer via Ida linker on Lys13 side chains) [compound 261]”: the concentration for half-maximal inhibition (IC50) is below 10 µM.
Turning to “168 (Ac-RRRRRQRVRIIFK; also: homodimer via GP3 linker on Lys13 side chains) [compound 168]”, the half-maximal inhibitory concentration (IC50) is below 10 µM.
With KRKRKKQRVKIAYEEIFVQNM [compound 20], the IC50 is above 30 µM.
For KRKRKKQRVKIAYEEIF [compound 66], the IC50 lay within 10 to 30 µM.
Consider “322 (XRRRRQHVHIYFK; Xaa = Acylated Histidine; The side chain of Lysine at position 13 is covalently bound to an Ida linker forming a homodimer of residues 1 through 13.) [compound 322]”, for which the half-maximal inhibitory concentration (IC50) was below 10 µM.
With KTKRKRKKQRVEEIFVQNM [compound 31], the IC50 is above 30 µM.
With KKQRVKIAYEEIFVKNM [compound 12], the half-inhibitory concentration (IC50) is below 10 µM.
“360 (Ac-RRRHRQHVHIYFK(Ida(3))-NH2; also: homodimer via Ida linker on Lys13 side chain, Boc on Ida amine) [compound 360]”: the IC50 is below 10 µM.
